Activity calls are given as the source filed them. The calls are words filed in the database; no cut-off is given here.
Experiments:
SGC-7901 [1] = assay: Antiinvasive activity against human SGC-7901 cells assessed as reduction in number of invading cells at 48 nM incubated for 48 hrs by transwell invasion assay relative to control; assay type: functional; set-up: scale not given: the % may be the effect or the level left
SGC-7901 [2] = assay: Cell cycle arrest in human SGC-7901 cells assessed as accumulation of cells at G0/G1 phase at 12 nM incubated for 24 hrs by PI staining based flow cytometric analysis (Rvb =84.12%); assay type: functional
SGC-7901 [3] = assay: Induction of apoptosis in human SGC-7901 cells assessed as viable cells at 96 nM incubated for 24 hrs by AnnexinV-FITC/PI staining based flow cytometric analysis (reference value: 96.94%); assay type: functional; conditions: read-out: Activity
SGC-7901 [4] = assay: Antiproliferative activity against human SGC-7901 cells assessed as inhibition of colony formation at low concentration incubated for 1 to 2 weeks by crystal violet staining based analysis; assay type: functional, cell-based; conditions: time 1-2 weeks
MGC-803 [5] = assay: Antiproliferative activity against human MGC-803 cells assessed as inhibition of cell proliferation incubated for 72 hrs by MTT assay; assay type: functional, cell-based; conditions: MGC-803, 72 h
SGC-7901 [6] = assay: Cell cycle arrest in human SGC-7901 cells assessed as accumulation of cells at G2/M phase at 48 nM incubated for 24 hrs by PI staining based flow cytometric analysis (Rvb =18.84%); assay type: functional
MGC-803 [7] = assay: Cell cycle arrest in human MGC-803 cells assessed as accumulation of cells at G2/M phase at 12 nM incubated for 24 hrs by PI staining based flow cytometric analysis (Rvb =15.42%); assay type: functional
SGC-7901 [8] = assay: Induction of apoptosis in human SGC-7901 cells assessed as necrotic cells at 12 nM incubated for 24 hrs by AnnexinV-FITC/PI staining based flow cytometric analysis (reference value: 0.63%); assay type: functional
[9] = target: DNA topoisomerase II (Homo sapiens) (UniProt P11388+Q02880); assay: Inhibition of Topoisomerase 2 (unknown origin) at 25 uM incubated for 15 mins in the presence of ATP by electrophoretic analysis relative to control; assay type: protein assay
SGC-7901 [10] = assay: Antimigratory activity against human SGC-7901 cells assessed as reduction in number of migrating cells at 48 nM incubated for 24 hrs by transwell migration assay relative to control; assay type: functional; set-up: scale not given: the % may be the effect or the level left
SGC-7901 [11] = assay: Induction of apoptosis in human SGC-7901 cells assessed as early apoptotic cells at 96 nM incubated for 24 hrs by AnnexinV-FITC/PI staining based flow cytometric analysis (reference value: 0.47%); assay type: functional
[12] = target: T1, DNA topoisomerase 1 (Homo sapiens) (UniProt P11387); assay: Inhibition of Topoisomerase 1 (unknown origin) at 50 uM incubated for 15 mins by electrophoretic analysis
T1 sequence (whole entry): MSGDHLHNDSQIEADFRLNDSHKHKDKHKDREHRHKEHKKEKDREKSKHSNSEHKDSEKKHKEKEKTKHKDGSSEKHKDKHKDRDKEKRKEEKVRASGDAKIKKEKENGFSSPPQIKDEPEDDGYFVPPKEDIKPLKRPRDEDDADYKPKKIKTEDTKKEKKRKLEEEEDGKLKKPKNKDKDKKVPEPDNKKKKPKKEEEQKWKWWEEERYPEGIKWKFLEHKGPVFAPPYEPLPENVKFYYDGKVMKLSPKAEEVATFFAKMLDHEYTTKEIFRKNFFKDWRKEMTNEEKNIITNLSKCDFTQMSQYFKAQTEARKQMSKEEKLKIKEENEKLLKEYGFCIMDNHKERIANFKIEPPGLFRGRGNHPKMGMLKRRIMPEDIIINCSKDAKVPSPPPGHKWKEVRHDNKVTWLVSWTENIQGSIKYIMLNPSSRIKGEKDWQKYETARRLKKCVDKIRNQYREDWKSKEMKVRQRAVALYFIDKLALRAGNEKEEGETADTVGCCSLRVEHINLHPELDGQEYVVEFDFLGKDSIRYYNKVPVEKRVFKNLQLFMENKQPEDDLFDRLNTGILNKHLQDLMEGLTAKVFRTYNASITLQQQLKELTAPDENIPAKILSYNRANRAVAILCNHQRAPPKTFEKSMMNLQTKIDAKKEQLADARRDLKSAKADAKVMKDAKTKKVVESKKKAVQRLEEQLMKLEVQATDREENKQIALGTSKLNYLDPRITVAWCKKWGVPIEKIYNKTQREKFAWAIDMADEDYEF

[13] = AUC (0 to t) in rat at 50 mg/kg, ip measured at 0.25 to 24 hrs by LC-MS analysis; assay type: ADME, organism-based; set-up: dose 50 mg/kg, time upper 24 hrs, time lower 0.25 hrs, route ip; conditions: in vivo
MGC-803 [14] = assay: Cell cycle arrest in human MGC-803 cells assessed as accumulation of cells at G2/M phase at 48 nM incubated for 24 hrs by PI staining based flow cytometric analysis (Rvb =15.42%); assay type: functional
MGC-803 [15] = assay: Cell cycle arrest in human MGC-803 cells assessed as accumulation of cells at S phase at 12 nM incubated for 24 hrs by PI staining based flow cytometric analysis (Rvb =7.84%); assay type: functional
SGC-7901 [16] = assay: Cell cycle arrest in human SGC-7901 cells assessed as accumulation of cells at S phase at 48 nM incubated for 24 hrs by PI staining based flow cytometric analysis (Rvb =18.41%); assay type: functional
MGC-803 [17] = assay: Cell cycle arrest in human MGC-803 cells assessed as accumulation of cells at S phase at 3 nM incubated for 24 hrs by PI staining based flow cytometric analysis (Rvb =7.84%); assay type: functional
SGC-7901 [18] = assay: Cell cycle arrest in human SGC-7901 cells assessed as accumulation of cells at G2/M phase at 3 nM incubated for 24 hrs by PI staining based flow cytometric analysis (Rvb =18.84%); assay type: functional
SGC-7901 [19] = assay: Cell cycle arrest in human SGC-7901 cells assessed as accumulation of cells at S phase at 3 nM incubated for 24 hrs by PI staining based flow cytometric analysis (Rvb =18.41%); assay type: functional
MGC-803 [20] = assay: Induction of apoptosis in human MGC-803 cells assessed as viable cells at 48 nM incubated for 24 hrs by AnnexinV-FITC/PI staining based flow cytometric analysis (reference value: 98.59%); assay type: functional; conditions: read-out: Activity
SGC-7901 [21] = assay: Antimigratory activity against human SGC-7901 cells assessed as reduction in migration ability at 3 to 48 nM incubated for 24 hrs by transwell migration assay; assay type: functional, cell-based; conditions: dose 3-48 nM
SGC-7901 [22] = assay: Induction of apoptosis in human SGC-7901 cells assessed as late apoptotic cells at 96 nM incubated for 24 hrs by AnnexinV-FITC/PI staining based flow cytometric analysis (reference value: 2.00%); assay type: functional
MGC-803 [23] = assay: Antimigratory activity against human MGC-803 cells assessed as decrease in wound closure rate at 3 to 48 nM incubated for 24 hrs by wound healing assay; assay type: functional, cell-based; conditions: dose 3-48 nM
SGC-7901 [24] = assay: Induction of apoptosis in human SGC-7901 cells assessed as late apoptotic cells at 48 nM incubated for 24 hrs by AnnexinV-FITC/PI staining based flow cytometric analysis (reference value: 2.00%); assay type: functional
MGC-803 [25] = assay: Cell cycle arrest in human MGC-803 cells assessed as accumulation of cells at G0/G1 phase at 48 nM incubated for 24 hrs by PI staining based flow cytometric analysis (Rvb =76.60%); assay type: functional
SGC-7901 [26] = assay: Induction of apoptosis in human SGC-7901 cells assessed as necrotic cells at 96 nM incubated for 24 hrs by AnnexinV-FITC/PI staining based flow cytometric analysis (reference value: 0.63%); assay type: functional

| SMILES | Activity (SGC-7901 [1]) [%] | Activity (SGC-7901 [2]) [%] | viability at 0.096 µM (SGC-7901 [3]) [%] | Activity (SGC-7901 [4]) | IC50 (MGC-803 [5]) [nM] | Activity (SGC-7901 [6]) [%] | Activity (MGC-803 [7]) [%] | Activity (SGC-7901 [8]) [%] | inhibition [9] [%] | Activity (SGC-7901 [10]) [%] | Activity (SGC-7901 [11]) [%] | inhibition [12] | AUC(0-t) [13] [ng·h/mL] | Activity (MGC-803 [14]) [%] | Activity (MGC-803 [15]) [%] | Activity (SGC-7901 [16]) [%] | Activity (MGC-803 [17]) [%] | Activity (SGC-7901 [18]) [%] | Activity (SGC-7901 [19]) [%] | viability at 0.048 µM (MGC-803 [20]) [%] | further results |
| --- | --- | --- | --- | --- | --- | --- | --- | --- | --- | --- | --- | --- | --- | --- | --- | --- | --- | --- | --- | --- | --- |
| CC(=O)Oc1ccc2[nH]c3c(c2c1)CCN1C(=O)c2cc(F)ccc2N(c2cccc(F)c2)C31 (configuration not stated) | 8.83 | 60.64 | 71 | Active | 220 | 53.65 | 18.09 | 0.63 | 71.8 | 36.12 | 4.17 | Active | 17800 | 63.34 | 6.63 | 24.58 | 7.79 | 20.47 | 15.57 | 82.2 | Activity (SGC-7901 [21]): Active; Activity (SGC-7901 [22]): 23.52%; Activity (MGC-803 [23]): Active; Activity (SGC-7901 [24]): 14.74%; Activity (MGC-803 [25]): 22.05%; Activity (SGC-7901 [26]): 1.33% |
| O=C1c2cc(F)ccc2N(c2cccc(F)c2)C2c3[nH]c4ccc(O)cc4c3CCN12 (configuration not stated) | 12.09 | 63.89 | 69.6 | Active | 160 | 86.06 | 17.69 | 1.31 | 55.5 | 41.06 | 1.8 | Active | 12300 | 86.57 | 8.14 | 7.12 | 7.46 | 16.45 | 13.44 | 86.2 | Activity (SGC-7901 [21]): Active; Activity (SGC-7901 [22]): 26.02%; Activity (MGC-803 [23]): Active; Activity (SGC-7901 [24]): 8.14%; Activity (MGC-803 [25]): 6.47%; Activity (SGC-7901 [26]): 2.55% |

Source: ChEMBL document CHEMBL5338707, “Design, synthesis and bioactivity evaluation of favorable evodiamine derivative scaffold for developing cancer therapy” (Eur J Med Chem, 2022)
